Measurements from ChEMBL document CHEMBL1255229, “Novel antimicrobial peptides that exhibit activity against select agents and other drug resistant bacteria” (2010).
Converted amounts (≈) assume the structure as drawn. Starred links: 1 amine or outer side, 2 acyl side, 3 side chain; linkers in the order of their positions; H or OH if unused. Non-standard residues stand in square brackets, D forms with d. Residues, ends and D or L forms follow the SMILES beside them. X1 = O=C([C@@H]1CN([*:1])C2CCCCC21)[*:2]; Tic = O=C(O)[C@@H]1Cc2ccccc2CN1

Key:
Type in all cases: functional
[1] = test system: Staphylococcus aureus; experiment: Antimicrobial activity against methicillin-resistant Staphylococcus aureus ATCC 33591 after 24 hrs; details: ATCC 33591, 24 h
[2] = test system: Bacillus anthracis; experiment: Antimicrobial activity against Bacillus anthracis Ames after 24 hrs
[3] = test system: Brucella melitensis; experiment: Antimicrobial activity against Brucella melitensis 16 M after 24 hrs
[4] = test system: Yersinia pestis; experiment: Antimicrobial activity against Yersinia pestis CO92 after 24 hrs; details: CO92, 24 h
[5] = test system: Burkholderia pseudomallei; experiment: Antimicrobial activity against Burkholderia pseudomallei BURK003(1026b) after 24 hrs
[6] = test system: Brucella suis; experiment: Antimicrobial activity against Brucella suis ATCC 23445 after 24 hrs; details: ATCC 23445, 24 h
[7] = test system: Acinetobacter baumannii; experiment: Antimicrobial activity against Acinetobacter baumannii ATCC 19606 after 24 hrs; details: ATCC 19606 = CIP 70.34 = JCM 6841, 24 h
[8] = test system: Acinetobacter baumannii; experiment: Antimicrobial activity against Acinetobacter baumannii WRAIR after 24 hrs
[9] = test system: Brucella abortus; experiment: Antimicrobial activity against Brucella abortus 2308 after 24 hrs; details: Brucella abortus, 2308, 24 h
[10] = test system: Burkholderia mallei; experiment: Antimicrobial activity against Burkholderia mallei ATCC 23444 after 24 hrs; details: ATCC 23444, 24 h
[11] = test system: Francisella tularensis; experiment: Antimicrobial activity against Francisella tularensis SCHU-S4 after 24 hrs; details: SCHU-S4, 24 h

CC(=O)NCC(=O)N[C@@H](Cc1ccccc1)C(=O)N1Cc2ccccc2C[C@H]1C(=O)N1C[C@@H](C(=O)NCC(=O)N[C@@H](CCCCN)C(=O)N2Cc3ccccc3C[C@H]2C(=O)N2C[C@@H](C(=O)NCC(=O)N[C@@H](Cc3ccccc3)C(=O)N3Cc4ccccc4C[C@H]3C(=O)N3C[C@@H](C(=O)NCC(=O)N[C@@H](CCCCN)C(=O)N4Cc5ccccc5C[C@H]4C(=O)N[C@@H](CCCCN)C(=O)N[C@@H](CCCCN)C(=O)N[C@@H](CCCCN)C(N)=O)C4CCCCC43)C3CCCCC32)C2CCCCC21 (stereo partly specified) (Ac-GF[Tic][X1]GK[Tic][X1]GF[Tic][X1]GK[Tic]KKK-NH2)
MIC [1]: 54 µM (≈ 125 µg/mL) | MIC [2]: 27 µM (≈ 62.4 µg/mL) | MIC [3]: 54 µM (≈ 125 µg/mL) | MIC [4]: 27 µM (≈ 62.4 µg/mL) | MIC [5]: 0.02 µM (≈ 0.0463 µg/mL) | MIC [6]: > 216 µM | MIC [7]: 6.7 µM (≈ 15.5 µg/mL) | MIC [8]: 3.4 µM (≈ 7.86 µg/mL) | MIC [9]: 27 µM (≈ 62.4 µg/mL) | MIC [10]: 0.02 µM (≈ 0.0463 µg/mL) | MIC [11]: 0.02 µM (≈ 0.0463 µg/mL)
